Assay results published in patent US9809540B2, “Hydrobromide salt of N-(4-chloro-2-hydroxy-3-((3S)-3-piperidinylsulfonyl)phenyl-N'-(3-fluoro-2-methylphenyl)urea” (GlaxoSmithKline Intellectual Property (No.2) Limited, priority 2013, dated 2017).
≈ marks a conversion by molar mass, not a printed value. Where a name gives a salt, the structure may show the parent alone.

Columns and labels:
[1] = Dissolution profiles (capsule) in pH1.6 simulated gastric fluid and pH 4 citrate buffer; format: physicochemical
Experimental: Dissolution profiles of the HBr salt (50 mg as free form) in a capsule compared with the free base in pH1.6 simulated gastric fluid and in pH 4 citrate buffer. The HBr salt is better.

[2] = Solubility in simulated gastric/intestinal fluids and pH media; format: physicochemical; conditions: for solubility at 0.5 h / solubility at 4 h / solubility at 24 h / solubility at 0.5 hr / solubility at 4 hr / solubility at 24 hr: thermodynamic from solid

Cc1c(F)cccc1NC(=O)Nc1ccc(Cl)c(S(=O)(=O)[C@H]2CCCNC2)c1O [HBr Salt, hydrobromide salt of the enantiomer N-{4-chloro-2-hydroxy-3-[(3S)-3-piperidinylsulfonyl]phenyl}-N′-(3-fluoro-2-methylphenyl)urea]
Dissolution profile ([1]; 50 mg as free form in a capsule, pH1.6 simulated gastric fluid and pH 4 citrate buffer, FIGS. 1 and 2): better
Dissolution rate at low gastric pH ([1]; FIG. 1, low gastric pH): enhanced dissolution rate without gelling
Rate of dissolution at an elevated gastric pH ([1]; FIG. 2, elevated gastric pH): greatest rate of dissolution
Dissolution profile at higher pH as compared to the free base ([1]; higher pH): improved
Solubility ([2]; Phares FaSSIF pH 6.5, 4 hr): 272 µg/mL
solubility at 0.5 h ([2]; SGF (simulated gastric fluid), pH 1.6, simulated gastric fluid, Batch 1, SGF pH 1.6, 0.5 hr): 770 µg/mL
solubility at 4 h ([2]; SGF (simulated gastric fluid), pH 1.6, simulated gastric fluid, Batch 1, SGF pH 1.6, 4 hr): 787 µg/mL
solubility at 24 h ([2]; SGF (simulated gastric fluid), pH 1.6, simulated gastric fluid, Batch 1, SGF pH 1.6, 24 hr): 795 µg/mL
solubility at 0.5 h ([2]; SGF (simulated gastric fluid), pH 1.6, simulated gastric fluid, Batch 2, SGF pH 1.6, 0.5 hr): 414 µg/mL
solubility at 4 h ([2]; SGF (simulated gastric fluid), pH 1.6, simulated gastric fluid, Batch 2, SGF pH 1.6, 4 hr): 647 µg/mL
solubility at 24 h ([2]; SGF (simulated gastric fluid), pH 1.6, simulated gastric fluid, Batch 2, SGF pH 1.6, 24 hr): 800 µg/mL
solubility at 0.5 h ([2]; SGF (simulated gastric fluid), pH 1.6, simulated gastric fluid, Batch 3, SGF pH 1.6, 0.5 hr): 757 µg/mL
Solubility compared with the free base ([2]; at higher pH's and in simulated intestinal fluids): higher than the free base
solubility at 0.5 hr ([2]; fasted-state simulated intestinal fluid (Phares FaSSIF), pH 6.5, fassif, Batch 1, Phares FaSSif pH 6.5, 0.5 hr): 420 µg/mL
solubility at 4 hr ([2]; fasted-state simulated intestinal fluid (Phares FaSSIF), pH 6.5, fassif, Batch 1, Phares FaSSif pH 6.5, 4 hr): 384 µg/mL
solubility at 24 hr ([2]; fasted-state simulated intestinal fluid (Phares FaSSIF), pH 6.5, fassif, Batch 1, Phares FaSSif pH 6.5, 24 hr): 64 µg/mL
solubility at 0.5 hr ([2]; fasted-state simulated intestinal fluid (Phares FaSSIF), pH 6.5, fassif, Batch 2, Phares FaSSif pH 6.5, 0.5 hr): 270 µg/mL
solubility at 4 hr ([2]; fasted-state simulated intestinal fluid (Phares FaSSIF), pH 6.5, fassif, Batch 2, Phares FaSSif pH 6.5, 4 hr): 379 µg/mL
solubility at 24 hr ([2]; fasted-state simulated intestinal fluid (Phares FaSSIF), pH 6.5, fassif, Batch 2, Phares FaSSif pH 6.5, 24 hr): 79 µg/mL
solubility at 0.5 hr ([2]; fasted-state simulated intestinal fluid (Phares FaSSIF), pH 6.5, fassif, Batch 3, Phares FaSSif pH 6.5, 0.5 hr): 459 µg/mL
solubility at 4 hr ([2]; fasted-state simulated intestinal fluid (Phares FaSSIF), pH 6.5, fassif, Batch 3, Phares FaSSif pH 6.5, 4 hr): 227 µg/mL
solubility at 24 hr ([2]; fasted-state simulated intestinal fluid (Phares FaSSIF), pH 6.5, fassif, Batch 3, Phares FaSSif pH 6.5, 24 hr): 56 µg/mL
solubility at 0.5 hr ([2]; fed-state simulated intestinal fluid (Phares FeSSIF), fessif, Batch 1, Phares FeSSIF pH .5, 0.5 hr): 838 µg/mL
solubility at 4 hr ([2]; fed-state simulated intestinal fluid (Phares FeSSIF), fessif, Batch 1, Phares FeSSIF pH .5, 4 hr): 833 µg/mL
solubility at 24 hr ([2]; fed-state simulated intestinal fluid (Phares FeSSIF), fessif, Batch 1, Phares FeSSIF pH .5, 24 hr): 788 µg/mL
solubility at 0.5 hr ([2]; fed-state simulated intestinal fluid (Phares FeSSIF), fessif, Batch 2, Phares FeSSIF pH .5, 0.5 hr): 478 µg/mL
solubility at 4 hr ([2]; fed-state simulated intestinal fluid (Phares FeSSIF), fessif, Batch 2, Phares FeSSIF pH .5, 4 hr): 846 µg/mL
solubility at 24 hr ([2]; fed-state simulated intestinal fluid (Phares FeSSIF), fessif, Batch 2, Phares FeSSIF pH .5, 24 hr): 834 µg/mL
solubility at 0.5 hr ([2]; fed-state simulated intestinal fluid (Phares FeSSIF), fessif, Batch 3, Phares FeSSIF pH .5, 0.5 hr): 724 µg/mL
solubility at 4 hr ([2]; fed-state simulated intestinal fluid (Phares FeSSIF), pH 6.5, fessif, Batch 3, Phares FeSSIF pH .5, 4 hr): 841 µg/mL
solubility at 24 hr ([2]; fed-state simulated intestinal fluid (Phares FeSSIF), pH 6.5, fessif, Batch 3, Phares FeSSIF pH .5, 24 hr): 340 µg/mL
Solubility at higher pH as compared to the free base ([2]; higher pH): improved
solubility at 0.5 h ([2]; pH 2, aqueous buffer, Batch 3, pH 2.0, 0.5 hr): 605 µg/mL
solubility at 4 h ([2]; pH 2, aqueous buffer, Batch 3, pH 2.0, 4 hr): 635 µg/mL
solubility at 24 h ([2]; pH 2, aqueous buffer, Batch 3, pH 2.0, 24 hr): 609 µg/mL
solubility at 24 h ([2]; pH 2, aqueous buffer, pH 2.0, 24 hr): 609 µg/mL
solubility at 0.5 h ([2]; pH 4, aqueous buffer, Batch 3, pH 4.0, 0.5 hr): 685 µg/mL
solubility at 4 h ([2]; pH 4, aqueous buffer, Batch 3, pH 4.0, 4 hr): 670 µg/mL
solubility at 24 h ([2]; pH 4, aqueous buffer, Batch 3, pH 4.0, 24 hr): 609 µg/mL
solubility at 4 h ([2]; pH 4, aqueous buffer, pH 4.0, 4 hr): 670 µg/mL
solubility at 0.5 h ([2]; pH 6, aqueous buffer, Batch 3, pH 6.0, 0.5 hr): 194 µg/mL
solubility at 4 h ([2]; pH 6, aqueous buffer, Batch 3, pH 6.0, 4 hr): 13 µg/mL
solubility at 24 h ([2]; pH 6, aqueous buffer, Batch 3, pH 6.0, 24 hr): 5 µg/mL
solubility at 0.5 h ([2]; pH 8, aqueous buffer, Batch 3, pH 8.0, 0.5 hr): 52 µg/mL
solubility at 4 h ([2]; pH 8, aqueous buffer, Batch 3, pH 8.0, 4 hr): 13 µg/mL
solubility at 24 h ([2]; pH 8, aqueous buffer, Batch 3, pH 8.0, 24 hr): 8 µg/mL
solubility at 0.5 h ([2]; pH 8, aqueous buffer, pH 8.0, 0.5 hr): 52 µg/mL
solubility at 4 h ([2]; pH 8, aqueous buffer, pH 8.0, 4 hr): 13 µg/mL
solubility at 24 h ([2]; pH 8, aqueous buffer, pH 8.0, 24 hr): 8 µg/mL
solubility at 4 hr ([2]; simulated gastric fluid (SGF), pH 1.6, simulated gastric fluid, Batch 3, SGF pH 1.6, 4 hr): 795 µg/mL
solubility at 24 hr ([2]; simulated gastric fluid (SGF), pH 1.6, simulated gastric fluid, Batch 3, SGF pH 1.6, 24 hr): 779 µg/mL
Solubility in simulated intestinal fluids over time ([2]; simulated intestinal fluids, compared with free base): does reduce with time but is still much higher than the equivalent free base solubility

Cc1c(F)cccc1NC(=O)Nc1ccc(Cl)c(S(=O)(=O)[C@H]2CCCNC2)c1O [Micronised free base, N-{4-chloro-2-hydroxy-3-[(3S)-3-piperidinylsulfonyl]phenyl}-N′-(3-fluoro-2-methylphenyl) urea, reference compound]
Solubility ([2]; Phares FaSSIF pH 6.5, 0.5 hr): 9 µg/mL (≈ 20.4 µM)
Solubility ([2]; Phares FaSSIF pH 6.5, 4 hr): 18 µg/mL (≈ 40.7 µM)
Solubility ([2]; Phares FaSSIF pH 6.5, 24 hr): 10 µg/mL (≈ 22.6 µM)
Solubility ([2]; Phares FeSSIF pH 6.5, 0.5 hr): 19 µg/mL (≈ 43 µM)
Solubility ([2]; Phares FeSSIF pH 6.5, 4 hr): 24 µg/mL (≈ 54.3 µM)
Solubility ([2]; Phares FeSSIF pH 6.5, 24 hr): 25 µg/mL (≈ 56.6 µM)
solubility at 0.5 h ([2]; SGF (simulated gastric fluid), pH 1.6, simulated gastric fluid, SGF pH1.6, 0.5 hr): 715 µg/mL (≈ 1620 µM)
solubility at 4 h ([2]; SGF (simulated gastric fluid), pH 1.6, simulated gastric fluid, SGF pH1.6, 4 hr): 808 µg/mL (≈ 1830 µM)
solubility at 24 h ([2]; SGF (simulated gastric fluid), pH 1.6, simulated gastric fluid, SGF pH1.6, 24 hr): 842 µg/mL (≈ 1910 µM)
Solubility ([2]; pH 2.0, 24 hr): 697 µg/mL (≈ 1580 µM)
solubility at 0.5 h ([2]; pH 2, aqueous buffer, pH 2.0, 0.5 hr): 601 µg/mL (≈ 1360 µM)
solubility at 4 h ([2]; pH 2, aqueous buffer, pH 2.0, 4 hr): 662 µg/mL (≈ 1500 µM)
Solubility ([2]; pH 4.0, 0.5 hr): 21 µg/mL (≈ 47.5 µM)
Solubility ([2]; pH 4.0, 4 hr): 23 µg/mL (≈ 52 µM)
Solubility ([2]; pH 4.0, 24 hr): 24 µg/mL (≈ 54.3 µM)
solubility at 24 h ([2]; pH 6, aqueous buffer, pH 6.0, 24 hr): 4 µg/mL (≈ 9.05 µM)
Solubility ([2]; pH 8.0, 0.5 hr): 5 µg/mL (≈ 11.3 µM)
Solubility ([2]; pH 8.0, 4 hr): 5 µg/mL (≈ 11.3 µM)
Solubility ([2]; pH 8.0, 24 hr): 5 µg/mL (≈ 11.3 µM)
